Measured values published in PMC10835127, “Viruses traverse the human proteome through peptide interfaces that can be biomimetically leveraged for drug discovery” (Proceedings of the National Academy of Sciences of the …, 2024).
Where two headings read alike, the source gives them in different places.

Key:
[1] = system: EBV; conditions: for EBV Norm MEAN: normalized mean of EBV replication readout
[2] = system: influenza A H1N1 virus; conditions: 48 hr post-treatment, A549
[3] = system: F. novicida (strain U112); format: cell-based
[4] = system: HCV replicon; format: cell-based; conditions: normalized mean of HCV replicon readout
[5] = system: HIV1 strain NL4-3; format: cell-based; conditions: normalized mean of HIV1 replication readout

Substance | enhancement of EBV signal ([1]; 20 µM peptide, Hone-1 cells, 48 h) | EBV Norm MEAN [1] | Neuraminidase activity normalized to vehicle ([2]; 200 µM peptide) | Neuraminidase activity normalized to vehicle ([2]; 0,823 µM peptide) | Neuraminidase activity normalized to vehicle ([2]; 22,2 µM peptide) | Neuraminidase activity normalized to vehicle ([2]; 2,4691 µM peptide) | Neuraminidase activity normalized to vehicle ([2]; 7,4074 µM peptide) | Neuraminidase activity normalized to vehicle ([2]; 66,6667 µM peptide) | Francisella novicida Norm AUC [3] | HCV Norm MEAN [4] | HIV1 Norm MEAN [5] | EBV Norm MEAN ([1]; peptide screen) | HCV Norm MEAN ([4]; peptide screen) | HIV1 Norm MEAN ([5]; peptide screen)
CPEP71: viral library peptide from HIV1 Integrase, targets IPO7 (WKGPAKLLWKG) | more than 2 fold | 2.918 | 0,1137 | 0,7606 | 1,0288 | 1,0227 | 0,9266 | 0,9918 | 1.748 | 0.4108 | 1.077 | – | – | –
RRPSRPFRK [CPEP88] | – | 0.9654 | 0,55 | 0,9984 | 0,7716 | 0,8217 | 0,8463 | 0,6969 | 1.028 | 0.6746 | 0.3045 | – | – | –
MNNQRKKAKNTPFNM [CPEP62] | – | – | 1,2311 | 1,1108 | 0,891 | 1,0767 | 0,9136 | 1,1387 | 0.8631 | – | – | 1.218 | 0.5393 | 0.3968
MSKKPGGPGKNRAVN [CPEP42] | – | – | 0,9312 | 0,9146 | 1,055 | 0,9945 | 0,9864 | 1,0215 | 1.093 | – | – | 0.6277 | 0.9525 | 0.4686
LGNIKGILGKKDKDG [CPEP51] | – | – | 1,0387 | 0,8902 | 0,9184 | 0,9673 | 0,9421 | 1,0486 | 1.389 | – | – | 0.7752 | 0.7895 | 0.5462
HVKNG [CPEP123] | – | 1.599 | 0,78 | 0,7776 | 0,8404 | 0,7299 | 0,7535 | 0,9273 | 0.9754 | 0.1965 | 1.079 | – | – | –
WGCSGKLICTTTVPW [CPEP84] | – | – | 0,0819 | 0,9093 | 0,9299 | 0,9765 | 0,9455 | 0,3888 | 1.224 | – | – | 0.6808 | 0.9118 | 0.7328
CPEP64: peptide of the viral peptide library; sequence page not shown (CCFHCQVCFIT) | – | 0.8807 | 0,0708 | 0,8369 | 0,1905 | 0,9654 | 0,5226 | 0,0909 | 0.8687 | 1.72 | 8.487 | – | – | –
